# In US20230414612A1, “PHARMACEUTICAL COMPOSITION COMPRISING A CAP-DEPENDENT ENDONUCLEASE INHIBITOR” (TaiGen Biotechnology Co., Ltd., priority 2022, published 2023):
# Legend:
# [1] = test system: influenza virus A/PR/8/34; test: Influenza virus growth in lungs of infected BALB/c mice; type: in vivo; conditions: 5 and 25 mg/kg; 100 pfu/mouse A/PR/8/34; one-day post-infection
# Experimental: (§1) The term “therapeutically effective amount” refers to the amount or dose of an active compound or salt thereof that is sufficient to prevent development of, or alleviate to some extent, one or more of the symptoms of the disorder, disease, or condition being treated. […] In addition, the effect of Compound A on influenza virus growth in lungs of BALB/c mice infected with low infectious dose 100 pfu/mouse of A/PR/8/34 at one-day post-infection was conducted. […] Therefore, based on the results of these preliminary in vivo animal studies, it is estimated that the reasonable therapeutically effective amount of the compound of Formula (I) or a pharmaceutically acceptable salt thereof for human can be about 5-200 mg, about 5-150 mg, about 5-100 mg, about 10-80 mg, about 10-40 mg, about 10-30 mg, about 10-20 mg, about 5-10 mg, about 5-20 mg, about 20-40 mg, or about 40-80 mg. For example but not limited thereto, the therapeutically effective amount of the compound of Formula (I) or a pharmaceutically acceptable salt thereof is 5 mg, 10 mg, 15 mg, 20 mg, 25 mg, 30 mg, 35 mg, 40 mg, 45 mg, 50 mg, 55 mg, 60 mg, 65 mg, 70 mg, 75 mg, 80 mg, 85 mg, 90 mg, 95 mg, 100 mg, 105 mg, 110 mg, 115 mg, 120 mg, 125 mg, 130 mg, 135 mg, 140 mg, 145 mg, 150 mg, 155 mg, 160 mg, 165 mg, 170 mg, 175 mg, 180 mg, 185 mg, 190 mg, 195 mg, or 200 mg.
# [2] = Stability study of Compound A and amorphous solid dispersions (total impurity level, TRS %); type: physicochemical
# Experimental: The amorphous solid dispersions were stored at 4° C. (closed) or 40° C./75% RH (closed and open state). After 10 days or 4 weeks, samples were observed by camera, characterized by XRPD and analyzed by HPLC for purity as well as kinetic solubility. All the samples for closed storage conditions were put into clear glass vials with gaskets and screwed caps. All the samples for open storage conditions were put into clear glass vials with cap, while the month of vials was covered by aluminium foil with pinholes to avoid cross-contamination.
# The sample number in TABLE 2 corresponds to the sample number in TABLE 1.
# [3] = test system: influenza virus (A/PR/8/34); test: In vivo influenza virus infection mouse model (survival rate, body weight change); conditions: 5 mg/kg, oral, BALB/c mouse infected with A/PR/8/34
# Experimental: as §1
# [4] = 14-day repeated-dose oral toxicity study; type: in vivo; conditions: 300 mg/kg/day
# Experimental: as §1
# [5] = Dissolution assessment: solubility in FaSSIF; type: physicochemical
# Experimental: An amount of Compound A (about 6 mg) and amorphous solid dispersion (equivalent to around 6 mg Compound A) were weighed into an 8 ml bottle, and 6 ml FaSSIF (Fasted state simulated intestinal fluid) was added (target concentration 1.0 mg/ml). Then the suspensions were stirred at thermomixer at 37° C. under 600 rpm 200 μL of suspensions were withdrawn at setting time (such as 5 min) and then centrifuged at 14000 rpm for 4 min. After that, 100 μL of supernatant was diluted with CAN five times to prevent precipitation, and was analyzed by HPLC.
# FaSSIF was prepared by following steps: 1) Place 0.1024 g sodium hydroxide, 0.7518 g sodium dihydrogen phosphate anhydrous and 1.5470 g sodium chloride in a 250 mL volumetric flask, add about 225 mL water, and adjust the pH to 6.5 with 1N sodium hydroxide or 1N hydrochloric acid. Make up to volume (250 mL) with pure water. 2) Place and dissolve 0.4480 g SIF Powder Original with 100 mL of buffer (from step 1) in a 200 mL volumetric flask, add water to volume and mix well.
compound,measurement,setting,value
"COC(=O)OCOc1c2n(ccc1=O)N([C@H]1c3ccccc3CSc3c1ccc(F)c3F)CC1(CC1)C2=O [Compound A, [1-((11S)-7,8-difluoro(6H,11H-dibenzo[c,f]thiepin-11-yl))-4,6-dioxospiro[1,2,3,9-tetrahydropyridino[1,2-e]pyridazine-3,1′-cyclopropane]-5-yloxy]methyl methoxyformate]",Virus titers in lungs vs vehicle treated group,[1],significantly lower
same,4° C. Closed for 4 wks TRS %,"[2]; 4° C., closed, 4 weeks",0.76%
same,40° C./75% RH Closed for 4 wks TRS %,"[2]; 40° C./75% RH, closed, 4 weeks",0.86%
same,40° C./75% RH Open for 4 wks TRS %,"[2]; 40° C./75% RH, open, 4 weeks (cells without #)",0.82%
same,Initial TRS %,"[2]; initial, total relative substances by HPLC",0.79%
same,antiviral efficacy on body weight change,[3],good antiviral efficacy
same,antiviral efficacy on survival rate,[3],good antiviral efficacy
same,deaths or toxic effect,[4],did not cause deaths or have toxic effect
same,"Solubility, 5 min","[5]; FaSSIF, 37° C., 600 rpm, target concentration 1.0 mg/ml, 5 min",4.95 µg/mL
same,"Solubility, 15 min","[5]; FaSSIF, 37° C., 600 rpm, target concentration 1.0 mg/ml, 15 min",4.89 µg/mL
same,aqueous solubility,[5]; statement in words,low aqueous solubility
